What is called IC50 is the midpoint of a concentration-inhibition curve. A higher IC50 goes with weaker potency in that assay. Broadly, the Kd is the equilibrium constant for the complex coming apart. A high value points to lower affinity.

The values that follow come from US20070197430A1, “Conjugates And Therapeutic Uses Thereof” (priority 2004, published 2007).

The target of data set [1] is T1, Bcl-xL ΔC25 (Homo sapiens, UniProt Q07817). In words: Alphascreen GST competition assay with biotinylated BimBH3 peptide. The format is binding. As to conditions: Example 14, two values given per peptide. How it is done:
(§1) Using solution competition assays and Alphascreen GST-detection as described below, the constrained peptide of Example 2 (peptide A) was assessed for competition binding to Bcl-2 homologues, Bcl-w ΔC29, Bcl-xL ΔC25 and Mcl-1 ΔC23.
(§2) All the assays were performed using 384-well white plates in a total volume of 20 μL. The assay buffer is 50 mM HEPES, 10 mM DTT, 100 mM NaCl, 0.05% Tween 20, 0.1 mg/mL casein, pH 7.4. The bead buffer is 50 mM Tris, 1% Tween 20, 0.1 mg/mL casein, pH 7.5.
(§3) For the GST-Bcl-wΔC29 protein assay, protein (0.10 nM), acceptor beads (10 μg/mL), 50% assay buffer and 50% bead buffer were incubated together for 30 minutes. At the same time, biotinylated BimBH3 peptide (Biotin-[…]-OH) (3 nM), donor beads (10 μg/mL), 50% assay buffer and 50% bead buffer were incubated to get for 30 minutes. For the competition binding assay, protein acceptor bead solution (10 μL) and the candidate compound, A, L1 or L2, were added into each well and incubated for 30 minutes, then biotinylated BimBH3 peptide donor bead solution (10 μL) was added into each well. The total DMSO concentration in each well was then adjusted to 0.5% to 2%. Plates were covered with aluminium foil and incubated at room temperature for 4 hours before reading in a Packard Fusion™ reader with excitation at 680 nm and emission at 520-620 nm. […]
Target sequence in this assay (Q07817 1-208 limits assumed): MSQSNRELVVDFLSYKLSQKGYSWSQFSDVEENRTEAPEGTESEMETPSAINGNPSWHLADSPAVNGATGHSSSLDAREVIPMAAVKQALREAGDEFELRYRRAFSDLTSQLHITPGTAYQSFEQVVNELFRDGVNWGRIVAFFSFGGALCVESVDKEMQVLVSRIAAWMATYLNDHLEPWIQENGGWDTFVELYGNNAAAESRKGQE

Data set [2] deals with T1, Bcl-xL ΔC25. In words: Surface plasmon resonance direct binding (Biacore S51). Conditions: SPR dissociation constant. An excerpt: (§4) In separate assay experiments, surface plasmon resonance (SPR) experiments using a Biacore S51 Biosensor were used as proof of direct binding of peptide A to Bcl-w ΔC29, Bcl-xL ΔC25 and Mcl-1 ΔC23. This technique also has the advantage of yielding dissociation constants, which are shown below.
(In general: SPR reads the build-up and loss of mass on a sensor chip optically.)

Data set [3] concerns the target Mcl-1 ΔC23. The data set is described as above. Conditions: SPR dissociation constant.
Source text: as §4

The target of another data set is T2, Bcl-w ΔC29 (Homo sapiens, UniProt Q92843).
T2 sequence (Q92843 1-164 limits assumed): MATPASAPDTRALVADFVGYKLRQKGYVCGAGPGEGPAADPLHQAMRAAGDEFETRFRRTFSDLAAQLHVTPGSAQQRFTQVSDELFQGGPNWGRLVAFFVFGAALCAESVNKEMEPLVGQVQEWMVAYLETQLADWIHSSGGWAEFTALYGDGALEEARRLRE
The experiment in a line: Alphascreen GST competition assay with biotinylated Bim BH3-26 peptide. The format is binding. Conditions: Example 14, two values given per peptide.

The subject of data set [4] is Mcl-1 ΔC23. In words: Alphascreen GST competition assay with biotinylated BakBH3 peptide. As to conditions: Example 14, two values given per peptide. The format is binding. How it is done: as §1, §2, §3
Background: Alpha assays give light when donor and acceptor beads are brought close together.

Data set [5] is described as follows: Circular dichroism, alpha-helical content of peptides. The format is physicochemical. Conditions: 30% aqueous trifluoroethanol. How it is done:
Circular dichroism spectra were obtained using a Jasco Model J-710 spetropolarimeter at 20° C. using the following parameters: path length, 2 mm; step resolution, 0.1 nm; speed, 20 nm/min, accumulation, 4; response, 1 second; bandwidth, 1.0 nm. The peptides were analysed at a concentration of 0.5 mg/mL in 30% aqueous TFE. The alpha-helical content of the peptides were determined by methods described in Yang et al (1986), involving comparisons of spectra with model helical peptides.

The target of a further data set is Bcl-2 ΔC22 (Homo sapiens, UniProt P10415). The experiment in a line: Competition assay with biotinylated Bim-BH3 peptide. The format is binding. Conditions: text says Bcl-2 and Bcl-xL. The source says:
Alphascreen (Amplified Luminsecent Proximity Homogenous Assay) is a bead based technology which measures a biological interaction between molecules. The assay consists of two hydrogel coated beads which, when bought into close proximity by a binding interaction, allow a transfer of singlet oxygen from a donor bead to an acceptor bead.
Upon binding a photosensitiser in the donor bead converts ambient oxygen to a more excited singlet state. This singlet oxygen then diffuses across to react with a chemiluminescer in the acceptor bead. Fluorophores within the same bead are activated, resulting in the emission of light.

Molecules are shown by their SMILES. Several values for one entry are separate records, joined by “and”; a condition that tells them apart may be missing. Equal entries are not always repeated. Peptide text beside a SMILES is read from it.

Bcl-2 ΔC22, sequence (P10415 1-217 limits assumed): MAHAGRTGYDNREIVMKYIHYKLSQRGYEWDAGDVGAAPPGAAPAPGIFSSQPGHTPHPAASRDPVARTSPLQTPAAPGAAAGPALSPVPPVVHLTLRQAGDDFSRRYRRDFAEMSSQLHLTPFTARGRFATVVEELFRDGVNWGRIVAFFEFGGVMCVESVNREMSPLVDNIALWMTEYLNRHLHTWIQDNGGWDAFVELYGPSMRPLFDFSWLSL

For the compound `CC[C@H](C)[C@H](NC(C)=O)C(=O)N[C@@H](C)C(=O)N[C@@H](CCC(N)=O)C(=O)N[C@@H](CCC(N)=O)C(=O)N[C@@H](CC(C)C)C(=O)N[C@@H](CCCNC(=N)N)C(=O)N[C@@H](CCCNC(=N)N)C(=O)N[C@H](C(=O)NCC(=O)N[C@@H](CC(=O)O)C(=O)N[C@@H](CCC(N)=O)C(=O)N[C@@H](Cc1ccccc1)C(N)=O)[C@@H](C)CC` [Peptide L2] (Ac-IAQQLRRIGDQF-NH2), the 50% inhibitory concentration (IC50) was 960 nM and 890 nM on Bcl-xL ΔC25 [1]; 120 nM at Bcl-w ΔC29; 650 nM and 660 nM in the data set on Mcl-1 ΔC23 [4]. Besides, the Kd at Bcl-xL ΔC25 [2] worked out at 370 nM; at Mcl-1 ΔC23 [3], 920 nM.
For the compound `CC[C@H](C)[C@H](NC(C)=O)C(=O)N[C@@H](C)C(=O)N[C@@H](CCC(N)=O)C(=O)N[C@H]1CCC(=O)NCCCCCCNC(=O)CC[C@@H](C(=O)N[C@@H](Cc2ccccc2)C(N)=O)NC(=O)[C@H](CC(=O)O)NC(=O)CNC(=O)[C@H]([C@@H](C)CC)NC(=O)[C@H](CCCNC(=N)N)NC(=O)[C@H](CCCNC(=N)N)NC(=O)[C@H](CC(C)C)NC1=O` [C, Ac-IAQ-E-LRRIGD-E-F-NH2] (HELM PEPTIDE1{[ac].I.A.Q.E.L.R.R.I.G.D.E.F.[am]}|CHEM1{[C(CCCN[*:2])CCN[*:1]]}$PEPTIDE1,CHEM1,5:R3-1:R1|PEPTIDE1,CHEM1,12:R3-1:R2$$$V2.0), the “% Helicity” value in data set [5] is recorded as 39%. For the same compound, at Bcl-2 ΔC22, the “affinity over the unconstrained 12-mer, in words” value is reported as “outstanding increases in affinity”.
For the compound `CC[C@H](C)[C@H](NC(C)=O)C(=O)N[C@@H](C)C(=O)N[C@@H](CCC(N)=O)C(=O)N[C@@H](CCC(=O)O)C(=O)N[C@@H](CC(C)C)C(=O)N[C@@H](CCCNC(=N)N)C(=O)N[C@@H](CCCNC(=N)N)C(=O)N[C@H](C(=O)NCC(=O)N[C@@H](CC(=O)O)C(=O)N[C@@H](CCC(=O)O)C(=O)N[C@@H](Cc1ccccc1)C(N)=O)[C@@H](C)CC` [Peptide L1] (Ac-IAQELRRIGDEF-NH2), the IC50 at Bcl-xL ΔC25 [1] is 7000 nM and 6300 nM; on Bcl-w ΔC29, 820 nM and 800 nM; with Mcl-1 ΔC23 [4], 400 nM and 360 nM. Also, the Kd on Bcl-xL ΔC25 [2] stood at 5200 nM; at Mcl-1 ΔC23 [3] it was 1200 nM. Besides, the “% Helicity” value in data set [5] turned out to be 9%.
